Marks after values point to notes of the source that are not given here. Values belong to the compound of their own block, whether it stands above or below them.
How the values were obtained:
[1] = tested on: MX-1 human breast cancer xenograft; assay: Xenograft tumor growth inhibition assay: MX-1; conditions: for % TGD (tumor growth delay): QDx14, endpoint 1000 mm^3; for % TGI (tumor growth inhibition): QDx14, tumor volumes study day 27
[2] = target: T1, second (BD2: amino acids E352-E168) bromodomain of BRD4 (Homo sapiens, UniProt O60885); assay: TR-FRET bromodomain binding assay, BRD4 BD2; conditions: TR-FRET assay protocol (A-G, compound concentration range); Ki calculated from IC50, probe Kd and probe concentration; read-out: TR-FRET Binding Ki: BRD4 (BDII_E352-M457)
T1 construct: protocol
Procedure, shortened: (§1)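 Values are Ki: IC50s from TR-FRET competition with an Alexa647-labeled BET-inhibitor probe were converted using probe Kd and probe concentration. Purified His-tagged bromodomain; pH 6.0 sodium phosphate buffer.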

[3] = tested on: MV4-11 human AML xenograft; assay: Xenograft tumor growth inhibition assay: MV4-11; assay type: in vivo, SCID-beige female mice; conditions: QDx14, tumor volumes study day 31
[4] = tested on: breast cancer cell line MX-1; assay: MX-1 cell line proliferation assay (3-day); assay type: cell-based; conditions: Homo sapiens, MX1; MX-1 cells, 72 h incubation, Cell Titer Glo; read-out: Cellular proliferation: EC50
Procedure, shortened: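 MX-1 cells in RPMI/10% FBS, plated 5000/well overnight, then exposed to compound at final 3 to 0.0001 μM (3-fold series) for 3 days at 37° C. Cell Titer Glo luminescence normalized to DMSO-treated cells; EC50 from sigmoidal curve fit.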

[5] = target: T2, first (BD1: amino acids K57-E168) bromodomain of BRD4 (Homo sapiens, UniProt O60885); assay: TR-FRET bromodomain binding assay, BRD4 BD1; conditions: TR-FRET assay protocol (A-G, compound concentration range); Ki calculated from IC50, probe Kd and probe concentration; read-out: TR-FRET Binding Ki: BRD4 (BDI_K57-E168)
T2 construct: His-tagged first (BD1: amino acids K57-E168)
Procedure, shortened: as §1

[6] = tested on: LPS induced IL-6 production; assay: LPS (lipopolysaccharide) induced IL-6 production mouse assay; conditions: 1 h before LPS 2.5 mg/kg i.p., serum IL-6 2 h after LPS, p<0.05
[7] = tested on: OPM-2 human multiple myeloma cancer xenograft; assay: Xenograft tumor growth inhibition assay: OPM-2; assay type: in vivo, SCID-beige female mice
[8] = 3 mg/kg/day PO, QDx21, endpoint 1000 mm^3

Ki [2]: 107 nM | EC50 [4]: 285 nM | Ki [5]: 28.2 nM
Structure (SMILES): Cn1cc(-c2cc(NS(C)(=O)=O)ccc2Oc2ccc(F)cc2F)ccc1=O [Example 240, N-[4-(2,4-difluorophenoxy)-3-(1-methyl-6-oxo-1,6-dihydropyridin-3-yl)phenyl]methanesulfonamide]
% TGD (tumor growth delay) ([1]; 3 mg/kg/day PO): 20% | % TGI (tumor growth inhibition) ([1]; 3 mg/kg/day PO): 40* % | % TGD (tumor growth delay) ([1]; 10 mg/kg/day PO): 35** % | % TGI (tumor growth inhibition) ([1]; 10 mg/kg/day PO): 55*** % | % TGD (tumor growth delay) ([1]; 30 mg/kg/day PO): 51*** % | % TGI (tumor growth inhibition) ([1]; 30 mg/kg/day PO): 61*** % | % TGI (tumor growth inhibition) ([3]; 3 mg/kg/day PO): 0% | % TGI (tumor growth inhibition) ([3]; 10 mg/kg/day PO): 23% | % TGI (tumor growth inhibition) ([3]; 30 mg/kg/day PO): 65^b** % | Inhibition of LPS induced IL-6 production, % inhibition ([6]; 30 mg/kg oral): 72.6 @ 30 mg/kg % | % TGI (tumor growth inhibition) ([7]; 30 mg/kg/day PO, QDx14): 36** % | % TGD (tumor growth delay) ([7]; 30 mg/kg/day PO, QDx14, endpoint 1000 mm^3): 113** %

Ki [2]: 10.9 nM | EC50 [4]: 138 nM | Ki [5]: 25.6 nM
Structure (SMILES): COc1cc(=O)n(C)cc1-c1cc(NS(C)(=O)=O)ccc1Oc1ccc(F)cc1F [Example 270, N-[4-(2,4-difluorophenoxy)-3-(4-methoxy-1-methyl-6-oxo-1,6-dihydropyridin-3-yl)phenyl]methanesulfonamide]
Inhibition of LPS induced IL-6 production, % inhibition ([6]; 3 mg/kg oral): 68.8 @ 3 mg/kg % | % TGI (tumor growth inhibition) ([7]; 3 mg/kg/day PO, QDx21): 42* % | % TGD (tumor growth delay) [7, 8]: 17% | % TGI (tumor growth inhibition) ([7]; 10 mg/kg/day PO, QDx21): 60% | % TGD (tumor growth delay) ([7]; 10 mg/kg/day PO, QDx21, endpoint 1000 mm^3): 59** %

Ki [2]: 1.55 nM | EC50 [4]: 47.3 nM | Ki [5]: 9.76 nM
Structure (SMILES): CCS(=O)(=O)Nc1ccc(Oc2ccc(F)cc2F)c(-c2cn(C)c(=O)cc2OC)c1 [Example 271, N-[4-(2,4-difluorophenoxy)-3-(4-methoxy-1-methyl-6-oxo-1,6-dihydropyridin-3-yl)phenyl]ethanesulfonamide]
Inhibition of LPS induced IL-6 production, % inhibition ([6]; 3 mg/kg oral): 76.9 @ 3 mg/kg % | % TGI (tumor growth inhibition) ([7]; 1 mg/kg/day PO, QDx21): 66* % | % TGD (tumor growth delay) ([7]; 1 mg/kg/day PO, QDx21, endpoint 1000 mm^3): 51*** % | % TGI (tumor growth inhibition) ([7]; 3 mg/kg/day PO, QDx21): 73* % | % TGD (tumor growth delay) [7, 8]: 93*** %
